Test results: patent US8563596B2, “Enantiomerically pure compounds for the treatment of proliferative disorders” (Piramal Enterprises Limited, priority 2006, dated 2013)
Read-outs that look alike come from different tables or passages of the source.

What was measured:
[1] = test system: HT-29 (Colon); assay: In vitro cell proliferation, 3H-Thymidine uptake assay; format: cell-based, human; settings: cells harvested after 72 hours
Protocol: (§1) Exponentially growing cultures of […] human cancerous cell lines (Calu1 lung, A-549 lung, HT-29 colon, HL-60 Promyelocytic Leukemia, PC-3 Prostate, H-460 Lung, MDA-MB-231 Breast, MCF-7 Breast, HeLa Cervix, Colo-205 Colon, H9 Lymphoma (T Cells), U-937 Histiocytic Lymphoma (monocytes) and CaCO-2 Colon) obtained from NCCS, Pune, India were used. The in vitro cell proliferation (NCl, USA protocol) and cytotoxicity assays were carried out using standard procedures viz. ^3H-Thymidine uptake and MTS assay, respectively (For ^3H-Thymidine uptake: Cell Biology, A Laboratory Handbook, 1998, Vol 1 Ed Julio E. Celis, and For MTS assay: Promega Protocol, USA, 2000). In the ^3H-Thymidine uptake assay, cells were harvested after 72 hours onto GF/B unifilter plates (Packard, USA) using a Packard Filtermate Universal harvester and the plates were counted on a Packard TopCount 96-well liquid scintillation counter. The concentration of compound at which 50% of proliferative activity was inhibited (IC50) and the degree of toxicity of compound were calculated for representative compounds and their pharmaceutically acceptable salts described in the Examples.

[2] = test system: A-549 (Lung); assay: as above; format: cell-based, human; settings: cells harvested after 72 hours
Protocol: as §1

[3] = test system: HT-29 (Colon); format: cell-based, human
Protocol: as §1

[4] = test system: Calu1 (Lung); format: cell-based, human
Protocol: as §1

[5] = test system: A-549 (Lung); format: cell-based, human
Protocol: as §1

[6] = target: T1, CDK2-cyclin E (Homo sapiens, UniProt P24941); assay: CDK2/Cyclin E kinase assay (32P phosphorylation of GST-Rb, filter plate); format: biochemical; settings: 30 min at 30° C.; GST-Rb substrate
T1 construct: made in house; host or cells: Sf9 insect cells (baculovirus)
Source text: (§2) CDK4/Cyclin D1 Kinase Assay and CDK2/Cyclin E Kinase Assay
(§3) The assays measure phosphorylation of retinoblastoma protein (Rb) by CDK4 or CDK2 upon activation by cyclin D1 or cyclin E, respectively, through the transfer of (γ^32P)-phosphate from γ^32P-ATP in a 96-well filter plate assay.
(§4) CDK4 or CDK2 was co-expressed with cyclin D1 or cyclin E, respectively, by a baculovirus expression system in insect cells. For this, 1×10^7 Sf9 cells were coinfected with baculoviruses containing human CDK-4 or 2 and cyclin D1 or E genes and after 72 hours cells were lysed in 500 μl of a lysis buffer (50 mM HEPES (pH 7.5), 10 mM MgCl2, 1 mM DTT, 5 μg/ml of aprotinin, 5 μg/ml of leupeptin, 0.1 mM NaF, 0.2 mM phenylmethylsulfonyl fluoride (PMSF), and sodium orthovanadate. Centrifuged lysate was purified on a GST-sepharose column. Purity of the proteins was checked by SDS-PAGE followed by western blots using specific antibodies (Santacruz Biotec, USA) to CDK4 or CDK2.
(§5) GST-retinoblastoma (Rb) (aa 776-928) fusion protein is expressed in the bacteria E. coli and purified by GSH-Sepharose affinity chromatography. The GST-Rb bound to these beads served as the substrate in the assay.
(§6) Quantitation was by scintillation detection of (^32P)-GST-Rb in 96-well filter plates using Top Count scintillation 96-well counter (Packard, USA).
The CDK4 or CDK2 enzyme assay was run in 96-well format using Millipore ultiscreen filtration plates. All assay steps took place in a single filter plate (Unifilter plates, Packard, USA). The filtration wells were pre-wet with kinase buffer (100 μl/well) and the solution was then removed by the application of vacuum, with the filter plate on a vacuum manifold and the vacuum on. 50 μl of GST-Rb bound to GSH-Sepharose beads in kinase buffer (0.5 μg GST-Rb/50 μl) was added to each well and vacuum was applied to remove the buffer. A further 25 μl of a reaction mix containing ATP (cold+hot) and phosphatase inhibitors diluted in kinase buffer were added to each well, followed by the addition of test compound (4× final concentration in kinase buffer) or kinase buffer (control) in an additional 25 μl volume. Finally 50 μl (100 ng) of human CDK-4/D1 or CDK-2/E enzyme in kinase buffer was added to each well to initiate the reaction. The reaction was incubated for 30 min at 30° C. After the reaction was complete, vacuum was applied and the plate was washed with the wash buffer (TNEN buffer) three times. The filter plate was air-dried and placed in a Multiscreen adapter plate. To each well, 30 μl Packard Microscint-O cocktail was added and the plate was covered with a Top-Seal A film. The plate was counted in a Packard Top Count Scintillation Counter for 10 min. […]

[7] = target: T2, CDK4-cyclin D1 (Homo sapiens, UniProt P11802); assay: CDK4/Cyclin D1 kinase assay (32P phosphorylation of GST-Rb, filter plate); format: biochemical; settings: 30 min at 30° C.; GST-Rb substrate
T2 construct: made in house; host or cells: Sf9 insect cells (baculovirus)
T2 sequence (P11802 whole entry): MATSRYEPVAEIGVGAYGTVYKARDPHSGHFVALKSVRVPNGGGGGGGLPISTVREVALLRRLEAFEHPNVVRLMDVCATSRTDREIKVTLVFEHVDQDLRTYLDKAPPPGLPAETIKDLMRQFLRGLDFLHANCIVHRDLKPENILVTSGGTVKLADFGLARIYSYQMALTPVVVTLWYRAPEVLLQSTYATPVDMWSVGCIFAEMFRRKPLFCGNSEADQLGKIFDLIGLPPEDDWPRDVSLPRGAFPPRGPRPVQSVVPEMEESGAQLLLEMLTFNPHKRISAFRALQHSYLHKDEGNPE
T2 sequence (P24385 whole entry partner): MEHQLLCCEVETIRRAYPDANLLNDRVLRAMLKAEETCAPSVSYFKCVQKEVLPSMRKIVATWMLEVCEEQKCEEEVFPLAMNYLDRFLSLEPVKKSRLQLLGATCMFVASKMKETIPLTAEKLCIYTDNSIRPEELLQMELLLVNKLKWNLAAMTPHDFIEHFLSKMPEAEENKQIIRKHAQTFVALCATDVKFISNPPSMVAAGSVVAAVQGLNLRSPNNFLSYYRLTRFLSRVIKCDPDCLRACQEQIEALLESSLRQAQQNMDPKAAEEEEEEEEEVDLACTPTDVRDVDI
Source text: as §2, §3, §4, §5, §6
The CDK4 or CDK2 enzyme assay was run in 96-well format using Millipore ultiscreen filtration plates. All assay steps took place in a single filter plate (Unifilter plates, Packard, USA). The filtration wells were pre-wet with kinase buffer (100 μl/well) and the solution was then removed by the application of vacuum, with the filter plate on a vacuum manifold and the vacuum on. 50 μl of GST-Rb bound to GSH-Sepharose beads in kinase buffer (0.5 μg GST-Rb/50 μl) was added to each well and vacuum was applied to remove the buffer. […] The plate was counted in a Packard Top Count Scintillation Counter for 10 min. […]

[8] = test system: Calu1 (Lung); assay: In vitro cell proliferation, 3H-Thymidine uptake assay; format: cell-based, human; settings: cells harvested after 72 hours
Protocol: as §1

Row | melting point [°C] | Compound | IC50 [1] [µM] | IC50 [2] [µM] | IC50 [3] [nM] | IC50 [4] [nM] | IC50 [5] [nM] | IC50 [6] [µM] | IC50 [7] [µM] | IC50 [8] [µM]
1 |  | (−)-trans-2-(2-Chlorophenyl)-5,7-dihydroxy-8-(2-hydroxymethyl-1-methyl pyrrolidin-3-yl)-chromen-4-one hydrochloride [Example 96-(F)] | 25 | 10 | 17900 | 16300 | 16000 | 21 |  | 
2 |  | (−)-trans-2-(2-Chloro-4-nitrophenyl)-5,7-dihydroxy-8-(2-hydroxymethyl-1-methylpyrrolidin-3-yl)-chromen-4-one hydrochloride [Example 97-(D)] | 10 |  |  |  |  | > 10 | 1 | 
3 |  | (+)-trans-2-(2-Chloro-4-nitrophenyl)-5,7-dihydroxy-8-(2-hydroxymethyl-1-methylpyrrolidin-3-yl)-chromen-4-one hydrochloride [Example 50] | 1.5 | 1.2 | 1100 | 1400 | 1200 | 1.7 | 0.045 | < 0.3
4 | 91 to 93 | COc1cc(OC)c2c(=O)cc(-c3ccccc3Cl)oc2c1[C@@H]1CCN(C)[C@H]1CO |  |  |  |  |  |  |  | 
5 |  | (+)-trans-2-(2-Chlorophenyl)-5,7-dihydroxy-8-(2-hydroxymethyl-1-methyl-pyrrolidin-3-yl)-chromen-4-one hydrochloride [Example 10] | 0.68 | 0.18 | 580 | 880 | 700 | 2.8 | 0.065 | < 0.3
6 | 253 to 254 | CN1CC[C@@H](c2c(O)cc(O)c3c(=O)cc(-c4cc(F)ccc4Cl)oc23)[C@@H]1CO |  |  |  |  |  |  |  | 
